The target of the assay is [35S]-TBPS binding, rat brain cortical membranes (GABAA receptor). The assay can be described thus: Steroid inhibition of [35S]-TBPS binding. The following applies: 3 nM [35S]-TBPS, in the presence of 5 mM GABA, 90 min at room temp. How it is done: Steroid Inhibition of TBPS Binding
[^35S]-t-Butylbicyclophosphorothionate (TBPS) binding assays using rat brain cortical membranes in the presence of 5 mM GABA has been described (Gee et al, J. Pharmacol. Exp. Ther. 1987, 241, 346-353; Hawkinson et al, Mol. Pharmacol. 1994, 46, 977-985; Lewin, A. H et al., Mol. Pharmacol. 1989, 35, 189-194).
Briefly, cortices are rapidly removed following decapitation of carbon dioxide-anesthetized Sprague-Dawley rats (200-250 g). The cortices are homogenized in 10 volumes of ice-cold 0.32 M sucrose using a glass/teflon homogenizer and centrifuged at 1500×g for 10 min at 4° C. The resultant supernatants are centrifuged at 10,000×g for 20 min at 4° C. to obtain the P2 pellets. The P2 pellets are resuspended in 200 mM NaCl/50 mM Na—K phosphate pH 7.4 buffer and centrifuged at 10,000×g for 10 min at 4° C. This washing procedure is repeated twice and the pellets are resuspended in 10 volumes of buffer. Aliquots ([…]) of the membrane suspensions are incubated with 3 nM [^35S]-TBPS and […] aliquots of test drug dissolved in dimethyl sulfoxide (DMSO) (final 0.5%) in the presence of 5 mM GABA. The incubation is brought to a final volume of 1.0 mL with buffer. Nonspecific binding is determined in the presence of […] and ranged from 15 to 25%. Following a 90 min incubation at room temp, the assays are terminated by filtration through glass fiber filters (Schleicher and Schuell No. 32) using a cell harvester (Brandel) and rinsed three times with ice-cold buffer. Filter bound radioactivity is measured by liquid scintillation spectrometry. Non-linear curve fitting of the overall data for each drug averaged for each concentration is done using Prism (GraphPad). […] The concentration of test compound producing 50% inhibition (IC50) of specific binding and the maximal extent of inhibition (Imax) are determined for the individual experiments with the same model used for the overall data and then the means±SEM.s of the individual experiments are calculated.
Various compounds are or can be screened to determine their potential as modulators of [^35S]-TBPS binding in vitro. These assays are or can be performed in accordance with the above
What is called IC50 is the concentration at which inhibition is half-maximal. Regarding `CCC[C@@]1(O)CC[C@H]2[C@H](CC[C@@H]3[C@@H]2CC[C@]2(C)[C@@H](C(=O)Nc4cnc(C#N)cn4)CC[C@@H]32)C1` [Compound 69, (3R,5R,8R,9R,10S,13S,14S,17S)—N-(5-cyanopyrazin-2-yl)-3-hydroxy-13-methyl-3-propylhexadecahydro-1H-cyclopenta[a]phenanthrene-17-carboxamide], the 50% inhibitory concentration (IC50) was under 100 nM.

`COC[C@@]1(O)CC[C@@]2(C)[C@H](CC[C@@H]3[C@@H]2CC[C@]2(C)[C@@H](C(=O)Nc4ccc(C#N)cn4)CC[C@@H]32)C1` [Compound 70, (3R,5R,8R,9S,10S,13S,14S,17S)—N-(5-cyanopyridin-2-yl)-3-hydroxy-3-(methoxymethyl)-10,13-dimethylhexadecahydro-1H-cyclopenta[a]phenanthrene-17-carboxamide]: the half-maximal inhibitory concentration (IC50) was under 100 nM.

`COC[C@@]1(O)CC[C@H]2[C@H](CC[C@@H]3[C@@H]2CC[C@]2(C)[C@@H](C(=O)Nc4ccc(C#N)cn4)CC[C@@H]32)C1` [Compound 71, (3R,5R,8R,9R,10S,13S,14S,17S)—N-(5-cyanopyridin-2-yl)-3-hydroxy-3-(methoxymethyl)-13-methylhexadecahydro-1H-cyclopenta[a]phenanthrene-17-carboxamide]: the IC50 is under 100 nM.

For the compound `COC[C@@]1(O)CC[C@@]2(C)[C@H](CC[C@@H]3[C@@H]2CC[C@]2(C)[C@@H](C(=O)Nc4cnc(C#N)cn4)CC[C@@H]32)C1` [Compound 72, (3R,5R,8R,9S,10S,13S,14S,17S)—N-(5-cyanopyrazin-2-yl)-3-hydroxy-3-(methoxymethyl)-10,13-dimethylhexadecahydro-1H-cyclopenta[a]phenanthrene-17-carboxamide], the IC50 was under 100 nM.

As to `COC[C@@]1(O)CC[C@H]2[C@H](CC[C@@H]3[C@@H]2CC[C@]2(C)[C@@H](C(=O)Nc4cnc(C#N)cn4)CC[C@@H]32)C1` [Compound 73, (3R,5R,8R,9R,10S,13S,14S,17S)—N-(5-cyanopyrazin-2-yl)-3-hydroxy-3-(methoxymethyl)-13-methylhexadecahydro-1H-cyclopenta[a]phenanthrene-17-carboxamide], the half-maximal inhibitory concentration (IC50) was under 100 nM.

For `CCC[C@@]1(O)CC[C@@]2(C)[C@H](CC[C@@H]3[C@@H]2CC[C@]2(C)[C@@H](C(=O)Nc4cnc(C#N)cn4)CC[C@@H]32)C1` [Compound 74, (3R,5R,8R,9S,10S,13S,14S,17S)—N-(5-cyanopyrazin-2-yl)-3-hydroxy-10,13-dimethyl-3-propylhexadecahydro-1H-cyclopenta[a]phenanthrene-17-carboxamide], the IC50 is under 100 nM.

Take `CCOC[C@@]1(O)CC[C@@]2(C)[C@H](CC[C@@H]3[C@@H]2CC[C@]2(C)[C@@H](C(=O)Nc4cnc(C#N)cn4)CC[C@@H]32)C1` [Compound 75, (3R,5R,8R,9S,10S,13S,14S,17S)—N-(5-cyanopyrazin-2-yl)-3-(ethoxymethyl)-3-hydroxy-10,13-dimethylhexadecahydro-1H-cyclopenta[a]phenanthrene-17-carboxamide]: the IC50 is under 100 nM.

Turning to `CCOC[C@@]1(O)CC[C@H]2[C@H](CC[C@@H]3[C@@H]2CC[C@]2(C)[C@@H](C(=O)Nc4cnc(C#N)nc4)CC[C@@H]32)C1` [Compound 76, (3R,5R,8R,9R,10S,13S,14S,17S)—N-(2-cyanopyrimidin-5-yl)-3-(ethoxymethyl)-3-hydroxy-13-methylhexadecahydro-1H-cyclopenta[a]phenanthrene-17-carboxamide], the half-maximal inhibitory concentration (IC50) was under 100 nM.

Take `CCOC[C@@]1(O)CC[C@H]2[C@H](CC[C@@H]3[C@@H]2CC[C@]2(C)[C@@H](C(=O)Nc4cc(C#N)ncn4)CC[C@@H]32)C1` [Compound 77, (3R,5R,8R,9R,10S,13S,14S,17S)—N-(6-cyanopyrimidin-4-yl)-3-(ethoxymethyl)-3-hydroxy-13-methylhexadecahydro-1H-cyclopenta[a]phenanthrene-17-carboxamide]: the IC50 was under 100 nM.

`CCOC[C@@]1(O)CC[C@H]2[C@H](CC[C@@H]3[C@@H]2CC[C@]2(C)[C@@H](C(=O)Nc4ccnc(C#N)n4)CC[C@@H]32)C1` [Compound 78, (3R,5R,8R,9R,10S,13S,14S,17S)—N-(2-cyanopyrimidin-4-yl)-3-(ethoxymethyl)-3-hydroxy-13-methylhexadecahydro-1H-cyclopenta[a]phenanthrene-17-carboxamide]: the half-inhibitory concentration (IC50) was under 100 nM.

With `CCOC[C@@]1(O)CC[C@H]2[C@H](CC[C@@H]3[C@@H]2CC[C@]2(C)[C@@H](C(=O)Nc4nccc(C#N)n4)CC[C@@H]32)C1` [Compound 79, (3R,5R,8R,9R,10S,13S,14S,17S)—N-(4-cyanopyrimidin-2-yl)-3-(ethoxymethyl)-3-hydroxy-13-methylhexadecahydro-1H-cyclopenta[a]phenanthrene-17-carboxamide], the IC50 is 100 to 1000 nM.

Regarding `CCC[C@@]1(O)CC[C@H]2[C@H](CC[C@@H]3[C@@H]2CC[C@]2(C)[C@@H](C(=O)Nc4ccc(F)cn4)CC[C@@H]32)C1` [Compound 81, (3R,5R,8R,9R,10S,13S,14S,17S)—N-(5-fluoropyridin-2-yl)-3-hydroxy-13-methyl-3-propylhexadecahydro-1H-cyclopenta[a]phenanthrene-17-carboxamide], the half-inhibitory concentration (IC50) is under 100 nM.

Turning to `CCOC[C@@]1(O)CC[C@H]2[C@H](CC[C@@H]3[C@@H]2CC[C@]2(C)[C@@H](C(=O)Nc4ncc(C#N)cn4)CC[C@@H]32)C1` [Compound 82, (3R,5R,8R,9R,10S,13S,14S,17S)—N-(5-cyanopyrimidin-2-yl)-3-(ethoxymethyl)-3-hydroxy-13-methylhexadecahydro-1H-cyclopenta[a]phenanthrene-17-carboxamide], the IC50 was in the range of 100 to 1000 nM.

`CCC[C@@]1(O)CC[C@H]2[C@H](CC[C@@H]3[C@@H]2CC[C@]2(C)[C@@H](C(=O)Nc4cncc(C#N)n4)CC[C@@H]32)C1` [Compound 83, (3R,5R,8R,9R,10S,13S,14S,17S)—N-(6-cyanopyrazin-2-yl)-3-hydroxy-13-methyl-3-propylhexadecahydro-1H-cyclopenta[a]phenanthrene-17-carboxamide]: the half-inhibitory concentration (IC50) is under 100 nM.

For `CCC[C@@]1(O)CC[C@H]2[C@H](CC[C@@H]3[C@@H]2CC[C@]2(C)[C@@H](C(=O)Nc4cc(C#N)ncn4)CC[C@@H]32)C1` [Compound 84, (3R,5R,8R,9R,10S,13S,14S,17S)—N-(6-cyanopyrimidin-4-yl)-3-hydroxy-13-methyl-3-propylhexadecahydro-1H-cyclopenta[a]phenanthrene-17-carboxamide], the IC50 was under 100 nM.

For the compound `C[C@H]1C[C@H]2[C@H](CC[C@@H]3[C@@H]2CC[C@]2(C)[C@@H](C(=O)Nc4ccc(C#N)nc4)CC[C@@H]32)C[C@]1(C)O` [Compound 85, (2S,3S,5R,8R,9R,10S,13S,14S,17S)—N-(6-cyanopyridin-3-yl)-3-hydroxy-2,3,13-trimethylhexadecahydro-1H-cyclopenta[a]phenanthrene-17-carboxamide], the half-inhibitory concentration (IC50) is under 100 nM.
